Source: patent publication US20260345582A1, “PRODRUG FOR ANTI-AGING RELATED DISEASES AND USE METHOD THEREOF” (Beijing SunCell Bio-Medical Co., Ltd., priority 2022, published 2026)
Entries after “also recorded” stand apart in the source; their conditions may differ.

How the values were obtained:
[1] = observation of status and clinical manifestations of mice during multiple rounds of administration; assay type: in vivo, C57 mice; conditions: for mice depilated, dispirited and in poor state: after 3 consecutive rounds
Method: B. The schematic diagram of the multiple dosing and the subsequent blood routine examinations in mice. The drug was administered on 3 consecutive days per week, followed by a 4-day interval, for 3 weeks continuous administration. The drug was administered by intraperitoneal injection in the afternoon on days 0, 1, 2, 7, 8, 9, 14, 15, and 16, and the blood was collected and tested in the morning on days 1, 3, 5, 8, 10, 12, 15, 17, and 19, respectively.
(§1) A single administration of A13 or A13bG was performed. Female 5-6 week old C57 mice were treated with a single intraperitoneal injection. A13 and A13bG were administered in three different dose groups of 2, 5, and 20 mg/kg. Approximately 50 μl of blood was collected from each mouse at different time points into the EDTA tubes (RAM Scientific) by means of inner canthal blood extraction, and analyzed using a haematology analyzer for a blood routine examination and a platelet counting. Multiple administrations of A13 or A13bG were performed. Female 5-6 week old C57 mice were treated with multiple intraperitoneal injections. A13 and A13bG were administered in three different dose groups of 2, 5 and 20 mg/kg, three consecutive days per week, followed by a 4-day withdrawal for 3 weeks. The time points of administration were in the afternoon of days 0, 1, 2, 7, 8, 9, 14, 15, and 16, and the time points of blood collection and testing were in the morning of days 1, 3, 5, 8, 10, 12, 15, 17, and 19, respectively.

[2] = tested on: platelets in peripheral blood; assay: in vivo platelet toxicity test, single intraperitoneal injection; parameters: species or system C57 mice; conditions: FIG. 4A
Description: A. Results of the platelet counts in peripheral blood on days 1, 3, 5, 8, and 10 after a single intraperitoneal injection of different doses of the given drug. Each dot in the panel represents the count of platelets detected in 1 mouse at that time point (n=4 mice); A13 represents the parent compound A1331852 administration group, and A13bGa1 represents the prodrug obtained after the β-gal modification of A13, and mpk represents the milligram dose per kilogram of the body weight. There were three different dose groups of 2, 5, and 20 mg/kg for both A13 and A13bGa1 administration. The dashed line in the panel indicates the mean value of the platelet counts of the mice in the control single vehicle administration group.
In Vivo Platelet Toxicity Test
as §1, with “The time points of administration were in the afternoon of days 0, 1, 2, 7, 8, 9, 14, 15, and 16, and the time points of blood collection and testing were in the morning of days 1, 3, 5, 8, 10, 12, 15, 17, and 19, respectively.” left out
For a blood routine examination, 50 μl of fresh blood was collected from each mouse and immediately mixed with EDTA. Blood samples were analyzed by Celltac Alpha MEK-6400 series haematology analyzer (Nihon Kohden, MEK-6400). Data were expressed as the number of different blood cells or platelets per μl of blood. […] A 200 μl of serum was aliquoted and analyzed for alanine aminotransferase (ALT), aspartate aminotransferase (AST), uric acid (UA), and creatinine (CREA) by a chemistry analyzer (Mindray, BS-350E).

[3] = tested on: HELF cells (primary human embryonic lung fibroblast); assay: in vitro killing of induced senescent HELF cells (CCK-8); assay type: cell-based; conditions: lung-derived, FIG. 3C
Description: Induction of the Cellular Senescence

[4] = single intraperitoneal administration, 2, 5, 20 mg/kg

SMILES | status and clinical manifestations (abnormalities) ([1]; 5 mg/kg and 20 mg/kg, 3 consecutive weeks, FIG. 4D) | mice depilated, dispirited and in poor state ([1]; 5 mg/kg dose group) | mice depilated, dispirited and in poor state ([1]; 20 mg/kg dose group) | platelet toxicity compared with the parent compound A13 [2, 4] | platelet-destroying effect [2, 4] | effect on the magnitude of the platelet changes in peripheral blood compared with A13 ([2]; single intraperitoneal administration) | killing of the senescent cells, efficiency and selectivity [3]
Cc1c(-c2ccc(N3CCc4cccc(C(=O)Nc5nc6ccccc6s5)c4C3)nc2C(=O)O)cnn1CC12CC3CC(CC(C3)C1)C2 [Compound A13, 3-[1-(adamantan-1-ylmethyl)-5-methylpyrazol-4-yl]-6-{8-[(1,3-benzothiazol-2-yl)carbamoyl]-3,4-dihydro-1H-isoquinolin-2-yl}pyridine-2-carboxylic acid] | depilated, dispirited and in poor state; also recorded: hair loss and depression | 2 out of 4 | 2 out of 4 |  |  |  | 
Cc1c(-c2ccc(N3CCc4cccc(C(=O)Nc5nc6ccccc6s5)c4C3)nc2C(=O)OCc2ccc(O[C@@H]3O[C@H](CO)[C@H](O)[C@H](O)[C@H]3O)c([N+](=O)[O-])c2)cnn1CC12CC3CC(CC(C3)C1)C2 [Compound A13bGa1] |  |  |  | significantly less toxic to the platelets than the parent compound A13 | strong platelet-destroying effect only at the higher dose of 20 mg/kg | significantly less than that of A13 | highly efficient and selective in killing the senescent cells
